Here are results for five molecules from paper PMC10096842, “Identification of Flavone Derivative Displaying a 4′-Aminophenoxy Moiety as Potential Selective Anticancer Agent in NSCLC Tumor Cells” (Molecules, 2023).

Structures are written as SMILES. Where only a bound is given, the exact number is not on record here.

Series [1] deals with human dermal fibroblasts (HDF). Description: MTT cell viability assay, HDF. Type of series: cell-based. Particulars: Fibroblast, 72 h. As for the experimental part: (§1) The human non-small cell lung cancer (NSCLC) and Human Dermal Fibroblasts (HDF) cell lines were all obtained from the American Type Culture Collection (ATCC). The H1975 (CRL-5908™) cell line was grown in RPMI 1640 medium (ECB2000) while the A549 (CCL-185™) and HDF were grown in complete DMEM medium (ECM0095) All cultures were supplemented with 10% fetal bovine serum (FBS), 2 mM L-glutamine, 100 U/mL penicillin, and 100 µg/mL streptomycin,. All cell lines were routinely maintained in 75 cm^2 flasks in a cell incubator at 37 °C, 5% CO2, and 95% relative humidity. The cell cultures were detached by trypsinization with 0.5% trypsin in PBS containing 0.025% EDTA. All cell culture reagents were supplied by Euroclone (Milan, Italy).
(§2) The number of metabolically active cells, and thus cell viability, was assessed by a 3-(4,5-dimethylthiazol-2-yl)-2,5-diphenyltetrazolium bromide (MTT) assay as previously described. The NSCLC cell lines (A549 and H1975) and HDF were seeded in 96-well plates to reach 50% confluence at 24 h; then, the medium was removed and replaced with 0.2 mL of fresh culture medium containing increasing compound concentrations (0–160 µM). After 72 h, the medium from each well was removed and replaced with fresh medium supplemented with MTT at a final concentration of 200 µg/mL. After incubation for 4 h at 37 °C, 0.2 mL of DMSO was added to each well followed by multiwell shaking for 4 min. The absorbance was read on a multiwell scanning microplate reader (BioTek Synergy HT MicroPlate Reader Spectrophotometer, BioTek Instruments Inc., Winooski, VT, USA) at 570 nm using the extraction buffer as a blank. The optical density in the control group (untreated cells) was considered as 100% viability. The relative cell viability (%) was calculated as (OD570 of treated samples/OD570 of untreated samples) × 100. Dose-dependent curves were therefore generated for the cytotoxic studies. The 50% inhibiting concentration (IC50) was determined by non-linear regression analysis with a three-parameter fit by utilizing SigmaPlot 12.0 Software, USA, Systat Software, Inc. SigmaPlot for Windows. Each experiment was performed at least five times in triplicate.

The next series relates to A549 NSCLC cells. The series can be described thus: MTT cell viability assay, A549. Particulars: for IC50: Homo sapiens, A549, 72 h, MTT; for SI (Selectivity Index): IC50 HDF / IC50 A549. Type of series: cell-based, human. As for the experimental part:
as §1, §2

Another series concerns H1975 NSCLC cells. The series can be described thus: MTT cell viability assay, H1975. Type of series: cell-based, human. As to conditions: for IC50: Homo sapiens, NCI-H1975, 72 h, H1975, 72 h, MTT; for SI (Selectivity Index): IC50 HDF / IC50 H1975. The method, then:
as §1, §2

Series [2] is described as follows: LogP determination (1-octanol/PBS partition, UV-vis). Type of series: physicochemical. As to conditions: for logP: 1-octanol/PBS, pH 7.4, 1-octanol/PBS pH 7.4, read-out: Experimental LogP. The method, then:
LogP was determined as previously described. Briefly, solutions of each APF were prepared in 1-octanol, and UV-vis spectra were acquired to determine the λmax. After having placed 2.5 mL of each solution in 10 mL conical centrifuge tubes, PBS was added (2.5 mL, pH 7.4) and the biphasic system was mixed using a vortex mixer (VELP Scientifica, Usmate Velate MB, Italy) followed by centrifugation (2000× g, 5 min). Then, the octanol phase absorption was measured at λmax. The partition coefficient Ko/w was calculated according to the following equation:Ko/w = [APF]oct/[APF]PBS = […] where Ai is the initial measured absorbance in octanol, pre-extraction, and Af is the final measured absorbance in octanol, post-extraction.

A further series has as its system advanced NSCLC. More on the design: method as in PMID 12177774, PMID 17912235, PMID 36674503. Particulars: treatment of advanced NSCLC; cited from earlier work.

As to `Nc1ccc(Oc2ccc3oc(-c4ccccc4)cc(=O)c3c2)cc1` [APF-2, 6-(4-aminophenoxy)-2-(phenyl)-4H-chromen-4-one], the figures for the IC50 (in series [1]; in the series on A549 NSCLC cells; in the series with H1975 NSCLC cells) were > 160 µM, 22 ± 3 µM and 50 ± 5 µM, respectively. The “SI (Selectivity Index)” value is listed as >8 in the series on A549 NSCLC cells and >3 in the series with H1975 NSCLC cells. The “Experimental LogP” value in series [2] (1-octanol/PBS pH 7.4) came out at 2.1 ± 0.3. Further, the logP in series [2] was determined as 2.3.

For the molecule `Nc1ccc(Oc2ccc3c(=O)cc(-c4cccc(Oc5ccccc5)c4)oc3c2)cc1` [APF-3, 7-(4-aminophenoxy)-2-(3′-phenoxy)phenyl-4H-chromen-4-one], the concentration for half-maximal inhibition (IC50) is 80 ± 3 µM in series [1], 33 ± 2 µM with A549 NSCLC cells and 40 ± 4 µM in the series on H1975 NSCLC cells. Besides, the “SI (Selectivity Index)” value in the series with A549 NSCLC cells and in the series on H1975 NSCLC cells was 2 each time. Further, the log partition coefficient (logP) in series [2] worked out at 3.3 ± 0.2.

On to `Nc1ccc(Oc2cccc3oc(-c4cccc(Oc5ccccc5)c4)cc(=O)c23)cc1` [APF-4, 5-(4-aminophenoxy)-2-(3′-phenoxy)phenyl-4H-chromen-4-one], for which the IC50 in series [1] was > 160 µM; in the series on A549 NSCLC cells, 32 ± 5 µM; in the series with H1975 NSCLC cells it was > 160 µM. Besides, the “SI (Selectivity Index)” value in the series with A549 NSCLC cells is >5. In addition, in series [2], the logP was 2.9 ± 0.2.

For the molecule `Nc1ccc(Oc2ccc3oc(-c4ccc(Oc5ccccc5)cc4)cc(=O)c3c2)cc1` [APF-5, 6-(4-aminophenoxy)-2-(4′-phenoxy)phenyl-4H-chromen-4-one], the values for the IC50 (in series [1]; in the series on A549 NSCLC cells; in the series with H1975 NSCLC cells) were 55 ± 2 µM, 7 ± 3 µM and 10 ± 5 µM, respectively. In addition, the “SI (Selectivity Index)” value with A549 NSCLC cells stood at 7; in the series on H1975 NSCLC cells, 5.5. Also, in series [2], the logP amounted to 3.2 ± 0.3.

For the molecule `COc1cccc2c1C(=O)c1c(O)c3c(c(O)c1C2=O)C[C@@](O)(C(=O)CO)C[C@@H]3O[C@H]1C[C@H](N)[C@H](O)[C@H](C)O1` [Doxorubicin, reference compound], the IC50 in series [1] came out at 14 ± 4 µM; with A549 NSCLC cells, 0.8 ± 0.2 µM; in the series on H1975 NSCLC cells, 2.5 ± 0.4 µM. Besides, the figures for the “SI (Selectivity Index)” value in the series on A549 NSCLC cells and in the series with H1975 NSCLC cells were 18 and 6, respectively. The overall response rate in the series with advanced NSCLC is on record as 30–50%.
